Test results as given in patent US10687531B2, “Urea and thiourea substituted bicycles derivatives as pesticides” (SYNGENTA PARTICIPATIONS AG, priority 2016, dated 2020).

Tests used:
Spodoptera littoralis = test: Example B1: Spodoptera littoralis (Egyptian cotton leaf worm), cotton leaf disc spray, L1 larvae; assay type: in vivo; conditions: foliar, 72 h, application rate 200 ppm, 3 days after infestation, read-out: control (at least one of mortality, anti-feedant effect, growth inhibition)
Method: Example B1: Spodoptera littoralis (Egyptian Cotton Leaf Worm)
Cotton leaf discs were placed on agar in 24-well microtiter plates and sprayed with aqueous test solutions prepared from 10,000 ppm DMSO stock solutions. After drying, the leaf discs were infested with five L1 larvae. The samples were assessed for mortality, anti-feedant effect, and growth inhibition in comparison to untreated samples 3 days after infestation. Control of Spodoptera littoralis by a test sample is when at least one of mortality, anti-feedant effect, and growth inhibition is higher than the untreated sample.

Diabrotica balteata = test: Example B3: Diabrotica balteata (corn root worm), maize sprouts, L2 larvae; assay type: in vivo; conditions: 96 h, application rate 200 ppm, 4 days after infestation, read-out: effect in at least one of the two categories (mortality or growth inhibition)
Method: Example B3: Diabrotica balteata (Corn Root Worm)
Maize sprouts, placed on an agar layer in 24-well microtiter plates were treated with aqueous test solutions prepared from 10,000 ppm DMSO stock solutions by spraying. After drying, the plates were infested with L2 larvae (6 to 10 per well). The samples were assessed for mortality and growth inhibition in comparison to untreated samples 4 days after infestation.

Plutella xylostella = test: Example B2: Plutella xylostella (diamond back moth), artificial diet, L2 larvae; assay type: in vivo; conditions: 120 h, application rate 200 ppm, 5 days after infestation, read-out: effect in at least one of the two categories (mortality or growth inhibition)
Method: Example B2: Plutella xylostella (Diamond Back Moth)
24-well microtiter plates with artificial diet were treated with aqueous test solutions prepared from 10,000 ppm DMSO stock solutions by pipetting. After drying, the plates were infested with L2 larvae (10 to 15 per well). The samples were assessed for mortality and growth inhibition in comparison to untreated samples 5 days after infestation.

Euschistus heros = test: Example B4: Euschistus heros, soybean leaf spray, N-2 nymphs; assay type: in vivo; conditions: 120 h, application rate 200 ppm, 5 days after infestation, read-out: effect in at least one of the two categories (mortality or growth inhibition)
Method: Example B4: Euschistus heros
Soybean leaf on agar in 24-well microtiter plates were sprayed with aqueous test solutions prepared from 10,000 ppm DMSO stock solutions. After drying the leaf were infested with N-2 nymphs. The samples were assessed for growth inhibition in comparison to untreated samples 5 days after infestation.

[1] = system: Frankliniella occidentalis; test: Example B6: Frankliniella occidentalis (western flower thrips), sunflower leaf disc spray; assay type: in vivo; conditions: foliar, 168 h, application rate 200 ppm, 7 days after infestation, mixed ages
Method: Example B6: Frankliniella occidentalis (Western Flower Thrips)
(§1) Sunflower leaf discs were placed on agar in 24-well microtiter plates and sprayed with aqueous test solutions prepared from 10,000 DMSO stock solutions. After drying the leaf discs were infested with a Frankliniella population of mixed ages. The samples were assessed for mortality 7 days after infestation.

Thrips tabaci = test: Example B5: Thrips tabaci (onion thrips), sunflower leaf disc spray; assay type: in vivo; conditions: foliar, 144 h, application rate 200 ppm, 6 days after infestation, mixed ages
Method: Example B5: Thrips tabaci (Onion Thrips)
as §1, with “10,000 ppm” for “10,000”, “thrips” for “Frankliniella”, “6” for “7”

For Cc1cccc(C)c1NC(=S)Nc1cnc2cc(-c3ncn(-c4ccc(OC(F)(F)F)cc4)n3)ccc2n1 [Compound P2.11, 1-(2,6-dimethylphenyl)-3-[6-[1-[4-(trifluoromethoxy)phenyl]-1,2,4-triazol-3-yl]quinoxalin-2-yl]thiourea], the control at 200 ppm (Spodoptera littoralis) was ≥ 80%, the percent effect (mortality or growth inhibition) at 200 ppm (Diabrotica balteata) was ≥ 80% and the percent control (mortality or growth inhibition) at 200 ppm (Plutella xylostella) was ≥ 80%.
In the case of Cc1cccc(C)c1NC(=S)Nc1nc2ccc(-c3ncn(-c4ccc(OC(F)(F)F)cc4)n3)cc2s1 [Compound P2.17, 1-(2,6-dimethylphenyl)-3-[6-[1-[4-(trifluoromethoxy)phenyl]-1,2,4-triazol-3-yl]-1,3-benzothiazol-2-yl]thiourea], the control at 200 ppm (Spodoptera littoralis) is reported as ≥ 80%, the percent effect (mortality or growth inhibition) at 200 ppm (Diabrotica balteata) is reported as ≥ 80% and the percent control (mortality or growth inhibition) at 200 ppm (Plutella xylostella) is reported as ≥ 80%. The percent effect (mortality or growth inhibition) at 200 ppm (Euschistus heros) was ≥ 80%.
In the case of Cc1cccc(C)c1N1CS/C1=N\c1cnc2cc(-c3ncn(-c4ccc(OC(F)(F)F)cc4)n3)ccc2n1 [Compound P2.12, 3-(2,6-dimethylphenyl)-N-[6-[1-[4-(trifluoromethoxy)phenyl]-1,2,4-triazol-3-yl]quinoxalin-2-yl]-1,3-thiazetidin-2-imine], the control at 200 ppm (Spodoptera littoralis) is reported as ≥ 80% and the mortality at 200 ppm [1] is reported as ≥ 80%.
For Cc1cccc(C)c1N1CS/C1=N\c1nc2ccc(-c3ncn(-c4ccc(OC(F)(F)F)cc4)n3)cc2s1 [Compound P2.14, 3-(2,6-dimethylphenyl)-N-[6-[1-[4-(trifluoromethoxy)phenyl]-1,2,4-triazol-3-yl]-1,3-benzothiazol-2-yl]-1,3-thiazetidin-2-imine], the control at 200 ppm (Spodoptera littoralis) was ≥ 80%, the percent control (mortality or growth inhibition) at 200 ppm (Plutella xylostella) was ≥ 80% and the mortality at 200 ppm (Thrips tabaci) was ≥ 80%.
Cc1cccc(C)c1NC(=O)Nc1ncc2cc(-c3ncn(-c4ccc(OC(F)(F)F)cc4)n3)ccc2n1 [Compound P2.6, 1-(2,6-dimethylphenyl)-3-[6-[1-[4-(trifluoromethoxy)phenyl]-1,2,4-triazol-3-yl]quinazolin-2-yl]urea] gave a melting point of 247 to 249 °C.
Work on Cc1cccc(C)c1N1CS/C1=N\c1ncc2cc(-c3ncn(-c4ccc(OC(F)(F)F)cc4)n3)ccc2n1 [Compound P2.8, 3-(2,6-dimethylphenyl)-N-[6-[1-[4-(trifluoromethoxy)phenyl]-1,2,4-triazol-3-yl]quinazolin-2-yl]-1,3-thiazetidin-2-imine] yielded a melting point of 227 to 229 °C.
In the case of Cc1cs/c(=N\c2ccc3cc(-c4ncn(-c5ccc(OC(F)(F)F)cc5)n4)ccc3n2)n1-c1ccccc1C(C)C [Compound P2.2, 3-(2-isopropylphenyl)-4-methyl-N-[6-[1-[4-(trifluoromethoxy)phenyl]-1,2,4-triazol-3-yl]-2-quinolyl]thiazol-2-imine], the control at 200 ppm (Spodoptera littoralis) is reported as ≥ 80%, the mortality at 200 ppm [1] is reported as ≥ 80% and the percent effect (mortality or growth inhibition) at 200 ppm (Diabrotica balteata) is reported as ≥ 80%. The percent control (mortality or growth inhibition) at 200 ppm (Plutella xylostella) was ≥ 80%.
With CC(C)c1ccccc1N1C(=O)CS/C1=N\c1ccc2cc(-c3ncn(-c4ccc(OC(F)(F)F)cc4)n3)ccc2n1 [Compound P2.3, (2Z)-3-(2-isopropylphenyl)-2-[[6-[1-[4-(trifluoromethoxy)phenyl]-1,2,4-triazol-3-yl]-2-quinolyl]imino]thiazolidin-4-one] the control at 200 ppm (Spodoptera littoralis) was ≥ 80%, the mortality at 200 ppm [1] was ≥ 80% and the percent effect (mortality or growth inhibition) at 200 ppm (Diabrotica balteata) was ≥ 80%. The percent control (mortality or growth inhibition) at 200 ppm (Plutella xylostella) was ≥ 80%.
With Cc1cccc(C)c1N1C(=O)CS/C1=N\c1ncc2cc(-c3ncn(-c4ccc(OC(F)(F)F)cc4)n3)ccc2n1 [Compound P2.9, (2Z)-3-(2,6-dimethylphenyl)-2-[6-[1-[4-(trifluoromethoxy)phenyl]-1,2,4-triazol-3-yl]quinazolin-2-yl]imino-thiazolidin-4-one] the control at 200 ppm (Spodoptera littoralis) was ≥ 80%, the percent effect (mortality or growth inhibition) at 200 ppm (Diabrotica balteata) was ≥ 80% and the percent control (mortality or growth inhibition) at 200 ppm (Plutella xylostella) was ≥ 80%.
In the case of CC(C)c1ccccc1N1CS/C1=N\c1ccc2cc(-c3ncn(-c4ccc(OC(F)(F)F)cc4)n3)ccc2n1 [Compound P2.1, 3-(2-isopropylphenyl)-N-[6-[1-[4-(trifluoromethoxy)phenyl]-1,2,4-triazol-3-yl]-2-quinolyl]-1,3-thiazetidin-2-imine], the control at 200 ppm (Spodoptera littoralis) is reported as ≥ 80%, the mortality at 200 ppm [1] is reported as ≥ 80% and the percent effect (mortality or growth inhibition) at 200 ppm (Diabrotica balteata) is reported as ≥ 80%. For the same compound, the percent control (mortality or growth inhibition) at 200 ppm (Plutella xylostella) was ≥ 80%.
With Cc1cccc(C)c1/N=C1/SCN1c1nc2ccc(-c3ncn(-c4ccc(OC(F)(F)F)cc4)n3)cc2s1 [Compound P2.15, N-(2,6-dimethylphenyl)-3-[6-[1-[4-(trifluoromethoxy)phenyl]-1,2,4-triazol-3-yl]-1,3-benzothiazol-2-yl]-1,3-thiazetidin-2-imine] the melting point was > 250 °C.
For CC(C)c1ccccc1/N=C1/SCC(=O)N1c1ccc2cc(-c3ncn(-c4ccc(OC(F)(F)F)cc4)n3)ccc2n1 [Compound P2.4, (2E)-2-(2-isopropylphenyl)imino-3-[6-[1-[4-(trifluoromethoxy)phenyl]-1,2,4-triazol-3-yl]-2-quinolyl]thiazolidin-4-one], the control at 200 ppm (Spodoptera littoralis) was ≥ 80%, the mortality at 200 ppm [1] was ≥ 80% and the percent effect (mortality or growth inhibition) at 200 ppm (Diabrotica balteata) was ≥ 80%. For the same compound, the percent control (mortality or growth inhibition) at 200 ppm (Plutella xylostella) was ≥ 80%, the mortality at 200 ppm (Thrips tabaci) was ≥ 80% and the percent effect (mortality or growth inhibition) at 200 ppm (Euschistus heros) was ≥ 80%.
With CC(C)c1ccccc1NC(=O)Nc1ccc2cc(-c3ncn(-c4ccc(OC(F)(F)F)cc4)n3)ccc2n1 [Compound P1.3, 1-(2-isopropylphenyl)-3-[6-[1-[4-(trifluoromethoxy)phenyl]-1,2,4-triazol-3-yl]-2-quinolyl]urea] the percent effect (mortality or growth inhibition) at 200 ppm (Diabrotica balteata) was ≥ 80% and the percent control (mortality or growth inhibition) at 200 ppm (Plutella xylostella) was ≥ 80%.
With Cc1cccc(C)c1NC(=S)Nc1ccc2cc(-c3ncn(-c4ccc(OC(F)(F)F)cc4)n3)ccc2c1 [Compound P2.13, 1-(2,6-dimethylphenyl)-3-[6-[1-[4-(trifluoromethoxy)phenyl]-1,2,4-triazol-3-yl]-2-naphthyl]thiourea] the control at 200 ppm (Spodoptera littoralis) was ≥ 80%, the percent effect (mortality or growth inhibition) at 200 ppm (Diabrotica balteata) was ≥ 80% and the percent control (mortality or growth inhibition) at 200 ppm (Plutella xylostella) was ≥ 80%.
For CC(C)c1ccccc1NC(=S)Nc1ccc2cc(-c3ncn(-c4ccc(OC(F)(F)F)cc4)n3)ccc2n1 [Compound P1.4, 1-(2-isopropylphenyl)-3-[6-[1-[4-(trifluoromethoxy)phenyl]-1,2,4-triazol-3-yl]-2-quinolyl]thiourea], the control at 200 ppm (Spodoptera littoralis) was ≥ 80%, the percent effect (mortality or growth inhibition) at 200 ppm (Diabrotica balteata) was ≥ 80% and the percent control (mortality or growth inhibition) at 200 ppm (Plutella xylostella) was ≥ 80%.
In the case of Cc1cccc(C)c1N1/C(=N/c2ncc3cc(-c4ncn(-c5ccc(OC(F)(F)F)cc5)n4)ccc3n2)SCC1(C)O (stereo not shown) [Compound P2.7, (2Z)-3-(2,6-dimethylphenyl)-4-methyl-2-[6-[1-[4-(trifluoromethoxy)phenyl]-1,2,4-triazol-3-yl]quinazolin-2-yl]imino-thiazolidin-4-ol], the percent effect (mortality or growth inhibition) at 200 ppm (Diabrotica balteata) is reported as ≥ 80% and the percent effect (mortality or growth inhibition) at 200 ppm (Euschistus heros) is reported as ≥ 80%.
